Values quoted from earlier work in US7374770B2, “Topical composition for follicular delivery of an ornithine decarboxylase inhibitor” (SkinMedica, Inc., priority 2001, dated 2008).

Details: undesirable secondary pharmacological effect, known

## C#CC(N)CCCN (stereo not shown) [5-hexyne-1,4-diamine]
  brain 4-aminobutyric acid levels: increases
